Tests used:
[1] = Oxygen consumption; type: in vivo, mouse; conditions: AICAR 500 mg/kg/day, 4 weeks
[2] = system: quadriceps muscle; assay: Microarray analysis of quadriceps (Affymetrix mouse genome 430A 2.0); type: in vivo
[3] = system: AMPK; assay: Western blot of phospho-AMPK in quadriceps; type: in vivo, mouse; conditions: AICAR 500 mg/kg/day, 4 weeks, quadriceps
Description: Exercise training is known to activate kinases, such as p44/42 MAPK and AMPK, which regulate gene expression in skeletal muscle (Chen et al., Diabetes, 52:2205-12, 2003; Goodyear et al., Am. J. Physiol, 271:[…]-8, 1996). AMPK affects skeletal muscle gene expression and oxidative metabolism (Chen et al., Diabetes. 52: 2205-12, 2003, Reznick et al., J. Physiol. 574: 33-9, 2006). The interaction between exercise-regulated kinases and PPARδ signaling is described in this Example. The levels of phospho-p44/42 MAPK and phospho-AMPK a subunit and total AMPK were determined in protein homogenates of quadriceps muscle by Western blot. Antibodies specific for phospho-p44/42 MAPK, phospho- and total-AMPK αl antibodies were obtained from Cell Signaling. The phospho-specific AMPK αl antibody recognizes the key activating threonine in the activation loop.

[4] = system: C57B/6J mice; assay: Treadmill running endurance test; type: in vivo, mouse; conditions: 500 mg/kg/day, 4 weeks, no exercise
Method: Mice were acclimated to moderate treadmill running (10 m/min for 15 min) every other day for 1 week. After acclimation, basal running endurance was determined by placing each mouse on a treadmill, gradually increasing the speed from 0 to 15 m/min, and maintaining 15 m/min until the mouse was exhausted. The time and distance run until exhaustion were recorded as the basal endurance values (Week 0).
Treatments were administered orally.
Expression of biomarkers characteristic of an oxidative phenotype in skeletal muscle, typically, has been correlated with increased oxidative performance (e.g., increased running endurance) of such skeletal muscle. […] Accordingly, to determine the functional effects of ligand, age and weight matched cohorts of treated and control mice were subjected to an endurance treadmill performance test before (week 0) and after (week 5) treatment.
In addition to affecting the contractile apparatus of skeletal muscle, exercise training also increases skeletal muscle mitochondrial density (e.g., Freyssenet et al., Arch. Physiol. Biochem., 104(2): 129-141, 1996). […] Mice in all groups were acclimated to moderate treadmill running and basal running endurance was determined as described in Example 1. Thereafter, mice in the exercise-trained groups received four weeks (5 days/week) of exercise training on a treadmill inclined at 5 degrees. […] At the end of four weeks, all exercise-trained mice were running for 50 min/day at 18 m/min. […] Unless otherwise noted, V, GW, Tr and GW+Tr subjects described in this and the examples below were similarly treated. At the end of the drug treatment and/or training protocol (Week 5) 6 mice per group were subjected to the running test. […] RNA was prepared real time quantitative PCR performed as described in Example 1.
At the end of the drug treatment and/or training protocol (Week 5) 6 mice per group were subjected to the running test.
At the end of the drug treatment and/or training protocol (Week 5), running endurance of six mice per group was determined in the same manner as was basal running endurance. […] on three mice in each group to confirm that changes observed in the skeletal muscle were not due to the acute run, but were related to the exercise training.

[5] = system: myoglobin, UCP3, cytochrome c (CYCS) and SCDl; assay: Western blotting of oxidative biomarkers in quadriceps; type: in vivo, mouse; conditions: AICAR 500 mg/kg/day, 4 weeks, quadriceps
Method: In addition to gene expression, protein expression was determined for selective oxidative biomarkers including myoglobin, UCP3, cytochrome c (CYCS) and SCDl, using Western blotting. Protein homogenates were prepared from quadriceps muscle, separated by SDS polyacrylamide gel electrophoresis, transferred to blotting membrane and probed with antibodies specific for myoglobin (Dako), UCP3 (Affinity Bioreagents), cytochrome c (Santacruz) SCDl (Santacruz), and, as a loading control, tubulin (Sigma).

[6] = AICAR alone, untrained mice, quadriceps

For NC(=O)c1ncn([C@@H]2O[C@H](CO)[C@@H](O)[C@H]2O)c1N [AICAR, 5-amino-4-imidazolecarboxamide riboside], the oxygen consumption [1] was “increased”, the Aacs expression [2, 6] was 1.875 and the Acly expression [2, 6] was 1.687. It also gave an Adipoq expression [2, 6] of 2.043, an Ak2 expression [2, 6] of 1.486 and an Apoe expression [2, 6] of 1.403. It also gave a Cd36 expression [2, 6] of 1.386, a Ces3 expression [2, 6] of 1.516 and a Cidea expression [2, 6] of 5.021. For the same compound, the Dgat2 expression [2, 6] was 2.034, the Elovl6 expression [2, 6] was 2.134 and the Fabp4 expression [2, 6] was 1.709. For the same compound, the Fasn expression [2, 6] was 2.098, the Lep expression [2, 6] was 2.047 and the Lipe expression [2, 6] was 1.64. For the same compound, the Lpl expression [2, 6] was 1.386, the Mgll expression [2, 6] was 1.503 and the Mgst1 expression [2, 6] was 1.602. The Nrip1 expression [2, 6] was 1.474, the Pck1 expression [2, 6] was 2.68 and the Pcx expression [2, 6] was 1.393. For the same compound, the Pdk4 expression [2, 6] was 1.321, the Pparg expression [2, 6] was 3.027 and the Retn expression [2, 6] was 1.891. It also gave a Scd1 expression [2, 6] of 1.931, a Sdhd expression [2, 6] of 1.529 and a Sfxn1 expression [2, 6] of 1.713. The Slc25a5 expression [2, 6] was 1.372, the Sult1a1 expression [2, 6] was 2.021 and the Tspo expression [2, 6] was 1.441. The Ucp1 expression [2, 6] was 3.623, the Ucp3 expression [2, 6] was 1.258 and the “number of upregulated genes linked to oxidative metabolism” value ([2]; AICAR treatment alone) was 32 genes. For the same compound, the “phosphorylation of AMPK a subunit and acetyl CoA carboxylase (ACC)” value [3] was “increased phosphorylation”, the “ran further than vehicle-treated mice (distance)” value [4] was about 44% and the “ran longer than vehicle-treated mice (time)” value [4] was about 23%. The “expression of UCP3 (immunoblot)” value [5] was “increased expression”.
